Source: patent US8609602B2, “Cleaning solution” (priority 2010, dated 2013)
Like-named read-outs stand apart in the source and are kept apart here.

Tests used:
[1] = assay type: physicochemical; details: for Solubility of added stearic acid in detergent solution (in words): stearic acid 10-20 mg/ml, overnight at 40° C.
Experimental: Detergents classified as ionic and non-ionic were tested, as well as carbohydrate and polyethylene glycol based non-ionic detergents.

[2] = MSDS / known values; cited from earlier work
[3] = 6.7% TRIZMA in 67% aqueous 2-propanol; (10% w/v)
Experimental: Different detergent or detergent/base stock solutions were mixed in culture tubes, vortexed for 1 minute, and allowed to completely dissolve over an additional 30 minutes. The stock solutions were either used undiluted or diluted with additional water or alcohol in predetermined ratios. Diluted solutions were again mixed by vortexing for 1 minute and then allowing the solution to sit for 30 minutes.
A representative aliphatic acid, the fatty acid stearic acid, was added to the tube in a predetermined quantity between 10 mg/ml and 20 mg/ml. […] Solutions were then cooled to room temperature (RT) and after 6 hours, they were evaluated again for evidence of precipitation.
The following experiment is similar to Experiment 1, except that addition of a non-toxic buffer and/or a short-chained alcohol was investigated to attempt to improve upon the above results. Various bases and alcohols were tested. […] A representative non-toxic base, TRIZMA® (SIGMA-ALDRICH®, St. Louis, Mo.), was first tested (also known as TRIS, and Tris(hydroxymethyl)aminomethane). […] For this test, the amount of contaminating aliphatic acid, stearic acid, added to the solution was increased to 100 mg/ml.

Molecule | Parts surfactant needed to dissolve stearic acid ([1]; aqueous detergent solution) | Solubility of added stearic acid in detergent solution (in words) [1] | Solubility of added stearic acid in detergent solution (in words) ([1]; listed as n-dodecyl-N,N-dimethylamine-N-oxide) | LD50 [2] [mg/kg] | Stearic acid completely solubilized by TRIZMA base without detergent [3] [mg/mL]
CCCCCCCCCCCC[N+](C)(C)[O-] [C-12 dimethyl amine oxide, n-dodecyl-N,N-dimethylamine-N-oxide] | 4 parts surfactant could dissolve 1 part stearic acid | Complete solubility at all concentrations of added stearic acid | quantitatively facilitated the solubilization | 5000 | –
Tris(hydroxymethyl)aminomethane [TRIZMA base] | – | – | – | – | 100
